Test results taken from paper PMC6364495, “Peptide–siRNA Supramolecular Particles for Neural Cell Transfection” (Advanced Science, 2018).
No end group written: not given here.

What was measured:
[1] = tested on: primary cortical embryonic neurons; experiment: Internalization route with endocytosis inhibitors, neurons; format: cell-based, mouse; conditions: 300 μM amiloride, 30 minutes preincubation before P4 + siRNA-A488, flow cytometry
Experimental: 1-4 days post-transfection cells were washed carefully three times with 1x PBS. Each well was incubated with 200 µL […]
resuspended in 600 µL of media to neutralize the trypsin and were centrifuged for 15 min at […]. Supernatant was removed, and the pellet was re-suspended in approximately 40 μL of media before Flow Cytometry (BD LSRFortessa) was performed. DAPI (Sigma, 5 µg/mL) was added 1-3 min before measurements were taken to determine the absolute number of dead cells (excitation wavelength of 405 nm). Cell populations were gated based on cell size (FSC), granularity of the cytoplasm (SSC), multiple cells (FSC-W), UV fluorescence (DAPI filter). Percentage of positive cells was calculated from alive cells (DAPI negative). All the samples were measured in triplicates. Results were analyzed using FlowJo software.
After 15 div neural cells were treated with either 5 μg/mL chlorpromazine hydrochloride, 1μg/mL fillipin III from Streptomyces filipinensis, 300 μM amiloride hydrochloride or a combination of them in fresh serum-free medium for 30 minutes before incubated with the peptide (52 μM) + siRNA-A488 (100 nM) for 15h. Samples were analyzed using flow cytometry as described in the previous section.
Western blot/ immunocytochemistry […]

[2] = Water solubility of peptide; format: physicochemical
Proteinase K = molecular target: T1, Proteinase K (Parengyodontium album, UniProt P06873); experiment: Proteinase K digestion test; format: in vitro ADME, Tritirachium album; conditions: 50 µM peptide, 0.2 µM siRNA, 25 mM HEPES pH 7.4, 24h, 37C, gel
T1 construct: purchased Sigma-Aldrich
Experimental: (§1) (Inhepar®, 5000 U/mL equivalent to) and Milli -Q® water to a final concentration of 0.01 mg/mL (1 U/mL) in a final volume of 10 μL. Samples were incubated at room temperature for 2h. After incubation, samples were run in a native 6% polyacrylamide electrophoresis gel as described in the section above.
(§2) A solution of 40 µM peptide and 0.2 µM DNA dissolved in 10X DNAse I buffer (Invitrogen) was mixed with DNAse I (Invitrogen) for a final enzyme concentration of 0.003 U/µL. The solution was incubated at 37 C and at each time point, 12 µL were mixed with 2.7 µL of 5X TBE buffer in ice to quench the enzyme. Then an aliquot of 4 M NaCl was added to every time point sample to a final concentration of […] after incubation for 3 days at 4°C the samples were ran in an electrophoresis gel.
(§3) Proteinase K Digestion Test
(§4) A previously prepared solution of 50 µM peptide and 0.2 µM siRNA dissolved in buffer 25 mM HEPES pH 7.4 were incubated during 24h at 37C in presence of Proteinase K from Tritirachium album (Sigma-Aldrich). After this time an aliquot of it was ran in an electrophoresis gel as mentioned above.
(§5) Salt stability of P4-siRNA particles
(§6) Sample solutions of 70 µM P4 peptide and 0.2 µM of siRNA in 25 mM HEPES pH 7.4 were incubated with different concentrations of NaCl (0-300 mM) for 24h at room temperature.
(§7) The samples were run in a native 6% polyacrylamide electrophoresis gel prepared manually. […]

[3] = tested on: primary cortical embryonic neurons; format: cell-based; conditions: 24 h, 104 µM
Experimental: (§8) Dulbecco’s Modified Eagle Medium (DMEM, Biological Industries), 10% normal horse serum (NHS, GIBCO), 1% penicillin-streptomycin (Pen-Strep, Biological Industries) and 2mM L-glutamine (Biological Industries). After centrifugation and re-suspension, cells were plated and grown to confluence at 37°C, 5% CO 2 (approximately 25-30 days in vitro (div)).
(§9) All the experiments were performed using glial cells from the first passage (Ps1). Passage 1 (Ps1) cells were cultured at a density of 2x10^5 cells/cm2 for 15 days in vitro (div) in DMEM, 1% Pen-Strep and 2mM L-glutamine on non-coated culture plastic (for Western blotting, flow cytometry) or glass (for immunocytochemistry). The cell composition and biochemical characterization of control and reference glial conditions have been described previously2.
(§10) Neurons were obtained from embryonic brains, as described3. Briefly, a time pregnant mouse was sacrificed by cervical dislocation and the embryos were extracted at embryonic day 16 (E16). […]
(§11) resuspended in 600 µL of media to neutralize the trypsin and were centrifuged for 15 min at 1.2 rpm. […] Cell populations were gated based on cell size (FSC), granularity of the cytoplasm (SSC), multiple cells (FSC-W), UV fluorescence (DAPI filter). Percentage of positive cells was calculated from alive cells (DAPI negative). All the samples were measured in triplicates. Results were analyzed using FlowJo software. […]

[4] = tested on: primary cortical astroglial cells; format: cell-based; conditions: 24 h, 104 µM
Experimental: as §8, §9, §10, §11

DNAse I = molecular target: T2, DNAse I (Bos taurus, UniProt P00639); experiment: Salt stability and DNAse I digestion of P4-DNA particles; format: in vitro ADME; conditions: versus siRNA particles, DNAse I 0.003 U/µL, 37 C, gel
T2 construct: purchased Invitrogen
Experimental: as §1, §2, §3, §4, §5, §6, §7

T1 sequence (P06873 106-384): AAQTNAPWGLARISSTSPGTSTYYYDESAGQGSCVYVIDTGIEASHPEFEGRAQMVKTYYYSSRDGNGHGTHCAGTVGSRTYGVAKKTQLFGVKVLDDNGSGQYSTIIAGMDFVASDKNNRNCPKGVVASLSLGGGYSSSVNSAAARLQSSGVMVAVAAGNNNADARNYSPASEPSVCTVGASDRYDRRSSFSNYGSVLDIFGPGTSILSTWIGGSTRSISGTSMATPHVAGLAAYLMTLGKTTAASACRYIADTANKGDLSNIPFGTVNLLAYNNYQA
T2 sequence (P00639 23-282): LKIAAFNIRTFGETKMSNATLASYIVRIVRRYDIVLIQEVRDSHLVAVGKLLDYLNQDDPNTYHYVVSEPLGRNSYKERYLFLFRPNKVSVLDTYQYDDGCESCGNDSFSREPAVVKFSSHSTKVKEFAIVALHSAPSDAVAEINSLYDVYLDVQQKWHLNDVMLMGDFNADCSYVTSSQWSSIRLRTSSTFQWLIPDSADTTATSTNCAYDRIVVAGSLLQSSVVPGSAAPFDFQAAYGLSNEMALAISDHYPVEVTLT

Compound: N=C(N)NC(=O)c1nc(Cl)c(N)nc1N [Amiloride, amiloride]
- reduction of uptake of siRNA, neuronal [1]: 80% ± 9.1

Compound: MPVGSLQELAVQKGWRLPEYTVAQESGPPHKREFTITVRVE [P1]
- water solubility [2]: poor water solubility

Compound: SIRKLEYEIEELRLRIGGGTFVETGSGTSKQVAKRVAAEKLLTKFKT [P4]
- release of siRNA after proteinase K digestion (Proteinase K): can be released after protease digestion
- cell survival, neuronal cells [3]: 89% ± 7
- cell survival, astroglial cells [4]: 88% ± 5.5
- salt and enzymatic stability of P4 complexed with dsDNA (DNAse I): lower salt and enzymatic stability
